In publication PMC8113459, “Selective inhibition of cullin 3 neddylation through covalent targeting DCN1 protects mice from acetaminophen-induced liver toxicity” (Nature Communications, 2021):
“And” between values parts separate entries of the source, which are not always exact repeats. Equal values may be shown once.

System: mice
Assay: 14-day toxicity study in mice
Type: in vivo, mouse
Conditions: for whole animal: body weight of individual male mouse; for whole animal / AdrenalGlands / Brain / Epidimydes (paired) / Heart / KidneyL / KidneyR / Liver / Spleen / Testes (paired) / Thymus: in g (unit assumed); for AdrenalGlands / Brain / Epidimydes (paired) / Heart / KidneyL / KidneyR / Liver / Spleen / Testes (paired) / Thymus: organ weight of individual male mouse; for RelGonads / Relative KidneyL / RelativeHeart / RelativeKidneyR / RelativeLiver / RelativeSpleen / RelativeThymus / RelAdrenGl / RelBrain / RelEpid: organ weight relative to whole animal; for RelAdrenGl / RelBrain / RelEpid: in % (unit assumed)
Experimental: We evaluated DI-1859 for its potential toxicity in immunocompetent mice with daily, 50 mg/kg, intraperitoneal (IP) dosing for 14 consecutive days (Supplementary Table 3).
Supplementary Table 3. Overview Toxicity Study design DI-1859 study.
Group # # of Mice Drug Vol./ Test Article Treatment Diluent
(male/female) Route mouse dose Schedule

[1] = Clin Chem, individual male mouse, 50 mg/kg, 14 day, vehicle 20% PCP, listed as DI-1589, 50 mg/kg, in U/L (unit assumed)
[2] = Hemavet Values, individual male mouse, 50 mg/kg, 14 day, vehicle 20% PCP, listed as DI-1589, 50 mg/kg
[3] = 50 mg/kg, 14 day, vehicle 20% PCP
[4] = 50 mg/kg, 14 day, vehicle 20% PCP, listed as DI-1589, 50 mg/kg
[5] = mice, 50 mg/kg IP daily for 14 days
[6] = mice, 50 mg/kg IP qD(1-14), mean ± s.d., n=5
[7] = individual male mouse, 50 mg/kg, 14 day
[8] = individual male mouse, 50 mg/kg, 14 day, listed as DI-1589, 50 mg/kg
[9] = serum, mice, 50 mg/kg IP qD(1-14), mean ± s.d., n=5

## C=C(CN(C)C)C(=O)NC[C@@H](NC(=O)[C@H](Cc1nc2ccc(C(C)C)cc2s1)NC(=O)CC)C1CCCCC1 [DI-1859]
50 mg/kg IP qD(1-14), Treat Day 2
  % wt change (average): -3.1%
50 mg/kg IP qD(1-14), Treat Day 3
  % wt change (average): -3.0%
50 mg/kg IP qD(1-14), Treat Day 3, n=5
  ave. wgt. (mouse body weight): 25.5 gm
50 mg/kg IP qD(1-14), Treat Day 4
  % wt change (average): -3.1%
50 mg/kg IP qD(1-14), Treat Day 4, n=5
  ave. wgt. (mouse body weight): 25.5 gm
50 mg/kg IP qD(1-14), Treat Day 5
  % wt change (average): -0.9%
50 mg/kg IP qD(1-14), Treat Day 5, n=5
  ave. wgt. (mouse body weight): 26.0 gm
50 mg/kg IP qD(1-14), Treat Day 6
  % wt change (average): -1.3%
50 mg/kg IP qD(1-14), Treat Day 6, n=5
  ave. wgt. (mouse body weight): 25.9 gm
50 mg/kg IP qD(1-14), Treat Day 7
  % wt change (average): -1.6%
50 mg/kg IP qD(1-14), Treat Day 7, n=5
  ave. wgt. (mouse body weight): 25.8 gm
50 mg/kg IP qD(1-14), Treat Day 8
  % wt change (average): -2.1%
50 mg/kg IP qD(1-14), Treat Day 8, n=5
  ave. wgt. (mouse body weight): 25.7 gm
50 mg/kg IP qD(1-14), Treat Day 9
  % wt change (average): -1.9%
50 mg/kg IP qD(1-14), Treat Day 9, n=5
  ave. wgt. (mouse body weight): 25.8 gm
50 mg/kg IP qD(1-14), Treat Day 10
  % wt change (average): -0.8%
50 mg/kg IP qD(1-14), Treat Day 10, n=5
  ave. wgt. (mouse body weight): 26.0 gm
50 mg/kg IP qD(1-14), Treat Day 11
  % wt change (average): -3.6%
50 mg/kg IP qD(1-14), Treat Day 11, n=5
  ave. wgt. (mouse body weight): 25.3 gm
50 mg/kg IP qD(1-14), Treat Day 12
  % wt change (average): -2.5%
50 mg/kg IP qD(1-14), Treat Day 12, n=5
  ave. wgt. (mouse body weight): 25.6 gm
50 mg/kg IP qD(1-14), Treat Day 13
  % wt change (average): -2.7%
50 mg/kg IP qD(1-14), Treat Day 13, n=5
  ave. wgt. (mouse body weight): 25.6 gm
50 mg/kg IP qD(1-14), Treat Day 14
  % wt change (average): -4.9%
50 mg/kg IP qD(1-14), Treat Day 14, n=5
  ave. wgt. (mouse body weight): 25.0 gm
[1]
  ALT: 34 and 26 and 24 and 31
  AST: 57 and 46 and 61 and 55 and 35
Hemavet Values, individual male mouse, 50 mg/kg, 14 day, vehicle 20% PCP
  PDW: 0%
[2]
  BA#: 0.01 K/uL and 0.09 K/uL and 0.05 K/uL and 0.13 K/uL
  BA%: 0.11% and 0.74% and 1.42% and 0.22% and 1.34%
  EO#: 0.05 K/uL and 0.22 K/uL and 0.08 K/uL and 0.02 K/uL and 0.52 K/uL
  EO%: 0.65% and 1.86% and 2.37% and 0.68% and 5.39%
  HB: 12.9 g/dL and 12.5 g/dL and 10.2 g/dL and 11.4 g/dL and 11.5 g/dL
  HCT: 37.7% and 38.6% and 31.1% and 36.4% and 34.1%
  LY#: 5.23 K/uL and 7.93 K/uL and 2.4 K/uL and 1.63 K/uL and 5.65 K/uL
  LY%: 69.39% and 68.59% and 72.26% and 71.36% and 58.57%
  MCH: 14.5 pg and 13.7 pg and 14.3 pg
  MCHC: 34.2 g/dL and 32.4 g/dL and 32.8 g/dL and 31.3 g/dL and 33.7 g/dL
  MCV: 42.5 fL and 42.4 fL and 41.9 fL and 43.7 fL
  MO#: 0.42 K/uL and 0.63 K/uL and 0.21 K/uL and 0.22 K/uL
  MO%: 5.58% and 5.49% and 6.31% and 9.5% and 6.52%
  MPV: 4.9 fL and 4.7 fL and 5.2 fL and 5.7 fL and 4.8 fL
  NE#: 1.83 K/uL and 2.69 K/uL and 0.59 K/uL and 0.42 K/uL and 2.72 K/uL
  NE%: 24.26% and 23.31% and 17.63% and 18.24% and 28.19%
  PLT: 900 K/uL and 866 K/uL and 228 K/uL and 177 K/uL and 757 K/uL
  RBC: 8.88 M/uL and 9.11 M/uL and 7.43 M/uL and 8.33 M/uL and 8.03 M/uL
  RDW: 17.1% and 16.5% and 17.2% and 17.7%
  WBC: 7.54 K/uL and 11.56 K/uL and 3.32 K/uL and 2.28 K/uL and 9.64 K/uL
[3]
  whole animal: 24.600
  AdrenalGlands: 0.007
  Brain: 0.448
  Epidimydes (paired): 0.106
  Heart: 0.104
  KidneyL: 0.187
  KidneyR: 0.192
  Liver: 1.500
  Spleen: 0.075
  Testes (paired): 0.230
  Thymus: 0.025
[4]
  whole animal: 25.300 and 25.200 and 26.400 and 27.400
  AdrenalGlands: 0.005 and 0.010
  Brain: 0.465 and 0.450 and 0.445 and 0.462
  Epidimydes (paired): 0.091 and 0.076 and 0.086 and 0.084
  Heart: 0.120 and 0.111 and 0.127 and 0.122
  KidneyL: 0.188 and 0.165 and 0.173 and 0.199
  KidneyR: 0.201 and 0.208 and 0.193 and 0.207
  Liver: 1.540 and 1.722 and 1.680
  Spleen: 0.063 and 0.074 and 0.062 and 0.093
  Testes (paired): 0.224 and 0.227 and 0.237 and 0.193
  Thymus: 0.088 and 0.032 and 0.029 and 0.028
[5]
  alterations in hematologic parameters: no meaningful alterations
  changes in body weights or organ weights: no changes
  tolerability: well tolerated
[6]
  Absolute organ weight, Adrenal glands (paired): 0.006 ± 0.002 g
  Absolute organ weight, Brain: 0.454 ± 0.009 g
  Absolute organ weight, Epididymis (paired): 0.089 ± 0.011 g
  Absolute organ weight, Heart: 0.117 ± 0.009 g
  Absolute organ weight, L kidney: 0.182 ± 0.013 g
  Absolute organ weight, Liver: 1.596 ± 0.098 g
  Absolute organ weight, R kidney: 0.200 ± 0.007 g
  Absolute organ weight, Spleen: 0.073 ± 0.013 g
  Absolute organ weight, Testes (paired): 0.222 ± 0.017 g
  Absolute organ weight, Thymus: 0.040 ± 0.027 g
  Body weights: 25.78 ± 1.11 g
  Hematocrit: 35.58 ± 3.02%
  Hemoglobin: 11.70 ± 1.06 g/dL
  MCH: 13.98 ± 0.39 pg
  MCHC: 32.88 ± 1.13 g/dL
  MCV: 42.60 ± 0.66 fL
  MPV: 5.06 ± 0.40 fL
  Platelets: 585.6 ± 354.1 10e3/uL
  RBC: 8.36 ± 0.67 10e6/ul
  RDW: 17.12 ± 0.43%
  Relative organ weight, Adrenal glands (paired): 0.02 ± 0.01 % of body weight
  Relative organ weight, Brain: 1.76 ± 0.07 % of body weight
  Relative organ weight, Epididymis (paired): 0.35 ± 0.05 % of body weight
  Relative organ weight, Heart: 0.45 ± 0.02 % of body weight
  Relative organ weight, L kidney: 0.71 ± 0.05 % of body weight
  Relative organ weight, Liver: 6.19 ± 0.19 % of body weight
  Relative organ weight, R kidney: 0.78 ± 0.04 % of body weight
  Relative organ weight, Spleen: 0.28 ± 0.04 % of body weight
  Relative organ weight, Testes (paired): 0.86 ± 0.09 % of body weight
  Relative organ weight, Thymus: 0.16 ± 0.11 % of body weight
  WBC: 6.868 ± 3.993 10e3/ul
mice, 50 mg/kg IP, 14 days
  Microscopic finding, Epididymis: Sperm granuloma: 0/10
  Microscopic finding, Liver: Necrosis, random: 0/5
  Microscopic findings, Adrenal Glands: 0/8
  Microscopic findings, Cecum: 0/5
  Microscopic findings, Colon: 0/5
  Microscopic findings, Heart: 0/5
  Microscopic findings, Kidneys: 0/10
  Microscopic findings, Lung: 0/5
  Microscopic findings, Mesenteric lymph node: 0/5
  Microscopic findings, Pancreas: 0/5
  Microscopic findings, Small intestine: 0/5
  Microscopic findings, Spleen: 0/5
  Microscopic findings, Sternal bone marrow: 0/5
  Microscopic findings, Stomach: 0/5
  Microscopic findings, Thymus: 0/5
  Microscopic findings, Urinary bladder: 0/5
[7]
  RelGonads: 0.935
  Relative KidneyL: 0.760
  RelativeHeart: 0.423
  RelativeKidneyR: 0.780
  RelativeLiver: 6.098
  RelativeSpleen: 0.305
  RelativeThymus: 0.102
  RelAdrenGl: 0.028
  RelBrain: 1.821
  RelEpid: 0.431
[8]
  RelGonads: 0.885 and 0.901 and 0.898 and 0.704
  Relative KidneyL: 0.743 and 0.655 and 0.726
  RelativeHeart: 0.474 and 0.440 and 0.481 and 0.445
  RelativeKidneyR: 0.794 and 0.825 and 0.731 and 0.755
  RelativeLiver: 6.087 and 6.111 and 6.523 and 6.131
  RelativeSpleen: 0.249 and 0.294 and 0.235 and 0.339
  RelativeThymus: 0.348 and 0.127 and 0.110
  RelAdrenGl: 0.020 and 0.019 and 0.037
  RelBrain: 1.838 and 1.786 and 1.686
  RelEpid: 0.360 and 0.302 and 0.326 and 0.307
[9]
  ALT: 28.2 ± 4.1 U/L
  AST: 50.8 ± 10.4 U/L
